Laboratory results reported in patent US20230023802A1, “STABILIZED DRUG FORMULATIONS AND METHODS OF LOADING DRUG DELIVERY IMPLANTS” (THE METHODIST HOSPITAL SYSTEM, priority 2019, published 2023).
Structures can show the parent of a compound that is named as a salt. Where two headings read alike, the source gives them in different places.

Columns and labels:
[1] = after 1 month, implant with 200 nm membrane in PBS sink, normalized to first time point
Description: Data are normalized to the values of day 1.
Urocanic acid was then tested. […] This formulation was loaded into an implant equipped with a 200 nm membrane. The implant was placed in 22 mL solution of PBS (the sink solution). The sink solution was replaced every 40 hours with fresh PBS. […] All results were normalized by the results of the first time point to compensate for the degradation that takes place in the sink solution.

[2] = pH=5.3
physchem = conditions: pH 7.4

SMILES | percentage of tenofovir alafenamide in the released mixture of tenofovir derivatives [1] [%] | hydrolysis half-life (t1/2) [2] | percentage of tenofovir alafenamide in the released mixture of tenofovir derivatives ([1]; listed as free base tenofovir alafenamide) [%] | half-life (physchem) [h]
CC(C)OC(=O)[C@H](C)N[P@](=O)(CO[C@H](C)Cn1cnc2c(N)ncnc21)Oc1ccccc1 [tenofovir alafenamide fumarate] | 45 | – | – | –
CC(C)OC(=O)[C@H](C)N[P@](=O)(CO[C@H](C)Cn1cnc2c(N)ncnc21)Oc1ccccc1 [tenofovir alafenamide] | – | over 4 months | 82 | < 48
